According to patent US10370404B2, “Protoescigenin derivative, process of its preparation, use of said compound and pharmaceutical composition comprising that compound” (Warszawski Uniwersytet Medyczny, priority 2015, dated 2019):

Legend:
[1] = system: male Wistar rats with surgically created side-to-side arterio-venous fistula between common femoral vessels; test: Rat arteriovenous fistula model of Parkes Weber syndrome: thigh circumference, muscle weight, femoral bone length; type: in vivo; details: sodium salt 10 mg/ml oral gavage, 4 weeks
Experimental: (§1) The below experiments were performed on male Wistar rats, at the age of 8-10 weeks, divided into two groups: the experimental group with surgically created side-to-side arterio-venous fistula between common femoral vessels (n=23) and a control group of un-operated animals (n=10). The experiment was approved by the local Bioethics Commission for experiments on animals, Warsaw 02-091, Żwirki i Wigury 61 (resolutions nr 11/2009 dated Jun. 23, 2009 and 46/12 dated Sep. 25, 2012).
Rats in experimental group were divided into two sub-groups, receiving no treatment (n=14) and receiving compound of the invention (n=9). Each animal was subjected to following surgical operations.
After induction of general anesthesia longitudinal skin incision just below inguinal ligament was performed. […] After application of micro-vascular clamps on common femoral vessels longitudinal 2 mm±0.1 mm long incision on antero-lateral side of the vein and antero-medial side of the artery were performed. Afterwards side-to-side anastomosis between common femoral vessels was performed to create arteriovenous fistula (non-absorbable monofilament suture 10/0). Subsequently micro-vascular clamps were removed and arteriovenous fistula patency was checked and haemostasis was achieved. […] The resultant vein lumen corresponded to approximately 80-90% of the initial vein lumen. Next, subcutaneous tissue and skin were sutured with absorbable suture.
The above procedure results in obtaining an animal model of Parkes Weber syndrome, described in the European patent application EP14001527. Hereinafter, these limbs are referred to as AVF limbs.
The operation of the right hind limb (control limb) included skin incision, common femoral vessels dissection, and subcutaneous and skin suture (absorbable suture). Hereinafter, these limbs are referred to as sham-operated limbs.
Animals were fed for 1 week, than surgical procedures were conducted. After the operation, animals were fed and treated with the compound of the invention.
(§2) The rats in sub-groups receiving compound of the invention were treated for 4 weeks with the compound of the invention (E-38) in form of sodium salt (10 mg/ml, 13.7 mM) administered by oral gavage.
(§3) After 4 weeks, rats were sacrificed and measurements were conducted. Non-operated rats were fed during the whole experiment. Blood samples for serum analysis were collected before the animals were sacrificed. […]
(§4) After euthanasia, measurements of thigh circumference limbs of animals of the experimental and control groups were performed. […] Femoral bones were excised and their length was measured with an electronic slide clipper.
(§5) The results were expressed as arithmetic means and standard errors of the mean (SEM). […]

[2] = system: male Wistar rats (un-operated control group); test: Un-operated control rats: thigh circumference, muscle weight, femoral bone length; type: in vivo, rat; details: sodium salt 10 mg/ml oral gavage, 4 weeks
Experimental: as §1
Rats in the control group were also divided into two sub-groups, receiving no treatment (n=6) and receiving the compound of the invention (n=4). These animals were not subjected to any surgical procedure.
as §2, §3, §4, §5

[3] = Biochemical analysis of the serum samples; type: in vivo, rat; details: control and experimental rats; sodium salt 10 mg/ml oral gavage, 4 weeks
Experimental: as §2
After 4 weeks, rats were sacrificed and measurements were conducted. Non-operated rats were fed during the whole experiment. Blood samples for serum analysis were collected before the animals were sacrificed. Biochemical analysis of the blood samples was conducted using biochemical analyzer Cobas 6000 (Roche, Hitachi).
In order to verify whether the administration of the compound of the invention results in any toxic effects influence in tested rats, the inventors conducted a set of basic biochemical tests of the serum isolated from the blood samples obtained from the control and experimental rats.
The conducted blood serum test included following parameters: glucose (GLUC), creatinin (CREA), urea (UREA), total protein (TP), uric acid (UA), amylase (AMYL), albumin (ALB), cholesterol (CHOL), triglicerides (TRIG), lipase (LIP), aspartate aminotransferase (AST), alanine aminotransferase (ALT), creatine kinase (CK).

[4] = system: Human Umbilical Vein Endothelial Cells (HUVEC); test: HUVEC cell migration assay; type: cell-based; details: 2 μM; rhTNF-α 10 ng/ml
Experimental: (§6) Human Umbilical Vein Endothelial Cells (HUVEC) were cultured in the EBM-2 (Lonza) supplemented with endothelial growth supplement mix (EGM-2 SingleQuot Kit Supplements and Growth Factors, Lonza) and 2% foetal bovine serum under standard cell culture condition (37° C., 5% CO2). Cells were harvested using Accutase (PAA Laboratories). All described experiments were performed with cells of passage four from at least three donors. The cells were treated with the compound of the invention at 2 μM for 24 h with or without an additional of 6 h stimulation of recombinant human TNF-α (rhTNF-α, 10 ng/ml, R&D Systems).
The rate of cell migration was measured with the Angiogenesis System: Endothelial Cell Migration (BD Biosciences) strictly according to the manufacturer's instructions.
The rate of cell migration was measured with Angiogenesis System: Endothelial Cell Migration (BD Biosciences). Briefly, 90% confluent HUVEC were incubated with the compound of the invention at 2 μM concentration in a complete culture medium for 24 h, then starved for 4 h in a medium containing 0.1% serum. Following seeing on migration inserts ([…] in 250 μl of media containing the compound of the invention) HUVEC were stimulated with rhTNF-α (10 ng/ml, R&D Systems). […]

[5] = system: Human Umbilical Vein Endothelial Cells (HUVEC); test: HUVEC in vitro vascular permeability assay; type: cell-based; details: 2 μM for 24 h; rhTNF-α for the last 6 h
Experimental: as §6
The In Vitro Vascular Permeability Assay Kit (Chemicon) was used to determine HUVEC monolayer permeability. All the steps of the procedure were performed according to the manufacturer's instructions.
The In Vitro Vascular Permeability Assay Kit (Chemicon) was used to determine HUVEC monolayer permeability following 24 h treatment of the compound of the invention at 2 μM concentrations. The effect of rhTNF-α (R&D Systems), which was added to cell culture for the last 6 h of the incubation period, was also determined. The subsequent steps of the procedure were performed according to the manufacturer's instructions.

[6] = left hind (AVF) limbs vs experimental group with no treatment

SMILES: CC1(C)C[C@H]2C3=CCC4[C@@]5(C)CC[C@H](O)[C@](C)(CO)C5CC[C@@]4(C)[C@]3(C)C[C@@H](O)[C@@]2(COCc2cn(-c3ccc(C(=O)O)cc3)nn2)[C@@H](O)[C@@H]1O (some centres unmarked) [compound of the invention]
- effect on measured parameters (thigh circumference, EDL and SOL muscle weight, femoral bone length) ([1]; AVF rats): reduction of the measured parameters to a very significant extent
- reduction of EDL muscle weight [1, 6]: approx. 59.2%
- reduction of SOL muscle weight [1, 6]: approx. 63.6%
- reduction of thigh circumference [1, 6]: approx. 12.5%
- influence on measured parameters (thigh circumference, EDL and SOL muscle weight, femoral bone length) [2]: insignificant influence
- influence on blood serum parameters (GLUC, CREA, UREA, TP, UA, AMYL, ALB, CHOL, TRIG, LIP, AST, ALT, CK) [3]: no significant influence
- TNF-α-induced cell migration [4]: reduced
- TNF-α-induced endothelial cells permeability [5]: significantly decreased
